Values of other authors, collected in publication PMC12036195 (Journal of Hematology & Oncology, 2025).

Tested on: r/r PTCL

N#CC[C@H](C1CCCC1)n1cc(-c2ncnc3[nH]ccc23)cn1 [ruxolitinib]
Response rate: 25%
